Experimental data reported in patent US10551393B1, “High-throughput, in vivo screening platform for modulators of Apolipoprotein B” (THE JOHNS HOPKINS UNIVERSITY, priority 2016, dated 2020).
Entries after “also recorded” stand apart in the source; their conditions may differ.

Tests used:
[1] = test system: ApoB; conditions: cited from earlier work
[2] = test system: ApoB-NanoLuc® luciferase reporter; test: ApoB-NanoLuc luciferase reporter assay in transgenic zebrafish larvae (primary screen); assay type: in vivo
Experimental: Of the two existing inhibitors of ApoB, lomitapide is the most appropriate for use as a proof of principle because it is a small molecule. Conversely, mipomersen is an injectable antisense biologic that is not suitable for comparison to small-molecule inhibitors and cannot be used a high-throughput manner. Larval zebrafish were treated with serial dilutions of the lomitapide for 36 hours from 2.5 to 4 dpf.
There are detailed protocols for the development and execution of a high-throughput screen using live vertebrate zebrafish (26, 27). The high-throughput screen uses transgenic zebrafish that carry both an engineered luciferase reporter (NanoLuc® luciferase) fused to ApoB which serves as the primary readout, and a second ubiquitously expressed firefly luciferase reporter that is used as an internal control. Transgenic larvae are raised to 3 days post-fertilization (dpf) and automatically sorted and dispensed into 96-well plates containing various dilutions of test compound. Following 48-hour incubation with test and control compounds, the zebrafish are homogenized and assayed sequentially for Firefly and NanoLuc® luciferase signal using the automated robotics platform and plate reader. Hit-calling software is used to select putative hits, which are validated through repetition and orthogonal screening. The first iteration of the screen uses a modest-sized library (3,000 compounds), and empirical determination of the optimal sample size and number of titration points required for screening enables an increase in throughput for the following iteration of the screen, which screens a 30,000 compound library.
Statistical resampling of positive control treatments can be used to estimate the appropriate sample size for HTS assays given type I and type II error rate thresholds and a desired cutoff for effect size (27). Assuming a type II error rate of 0.01 and setting the hit selection cutoff to 50% the magnitude of positive control treatment generates a log-linear relationship between sample size and type I error rate. […] Besides serving as a metric for assay quality, the SSMD score can also be used to determine hit cutoff criteria. This statistical test compares the averages between the negative control and each experimental sample, and then adjusts this difference based on the median absolute deviation (MAD) of each sample, such that samples with high variability are penalized and produce a poor SSMD score even if there is a large difference between the means. In positive control treatments, lomitapide produced an SSMD score of −4.5, reflecting a very strong control assay. The scaling factor formula can be used to determine the SSMD cutoff based on the desired magnitude relative to the positive control. A compound with a 50% effect size relative to MTP was chosen as a physiologically relevant effect size, which would produce an SSMD score of −2.7.
Day 1: Embryo production and collection—zebrafish homozygous for the ApoB-NanoLuc® luciferase and ubi:Fluc reporters are induced to spawn using custom mass-breeding chambers. Eggs are collected hourly from 9 AM to 2 PM. Embryos are maintained in petri dishes at a density of 5 fish/mL of embryo medium (E3). Day 2: Raising embryos—Embryos are maintained in E3 (1 dpf). Day 3: Raising embryos and preparing drug plates—Embryos are maintained in embryo medium (2 dpf). […]

[3] = test system: firefly luciferase internal control reporter; test: Firefly luciferase internal control (counter-screen) of the dual luciferase assay; assay type: in vivo; conditions: preliminary screen; cutoff SSMD ±2.4
From the text: The primary screen seeks to identify compounds that lower ApoB levels, which is likely to identify numerous false positives that are cytotoxic or inhibit fundamental cellular processes such as transcription or translation. The inclusion of a counter-screen helps identify compounds that have strong effects on the target phenotype without causing major disruptions in other cellular processes. The pd75 zebrafish line carries a ubiquitous promoter driving firefly luciferase as well as the mCherry fluorescent reporter, which can be used to detect developmental delay or cytotoxicity in any organ. […]
The Nano-Glo® dual luciferase assay provides the means to independently measure firefly and NanoLuc® luciferase in a single reaction enabling parallel measurement of the primary screen reaction and counter-screen reaction in a high-throughput compatible add-and-read format. Consistent measurement of luciferase activity requires homogenous sample inputs, so we have developed homogenization methods using a microplate sonicator that exceeds the throughput capacity of the plate reader.
The NanoLuc® luciferase reporter uses a different substrate than firefly luciferase, allowing a second luciferase reporter to be measured in parallel as an internal control. […]

[4] = test system: ApoB-containing lipoprotein particles; test: In-gel luciferase assay for lipoprotein size distribution; assay type: in vivo, zebrafish; conditions: for lipoprotein particle size distribution: larval zebrafish homogenate, polyacrylamide gel, in-gel luciferase
Experimental: To evaluate whether introduction of the luciferase tag disrupted protein function, individual larvae carrying the reporter construct were homogenized and lipoprotein classes were separated on a 3% PAGE gel (see Singh et al. Lipids in Health and Disease 7:47, 2008). An in-gel luciferase assay was then performed to detect the NanoLuc® luciferase reporter present in the gel (FIG. 2A), and compared to the results obtained from adult zebrafish serum that was stained using lipophilic fluorescent dye (FIG. 2B). Encouragingly, essentially all of the signal was present in the expected VLDL, IDL, and LDL portions of the gel, which is consistent with the primary role of ApoB as an obligate structural component of lipid-rich lipoproteins. Additionally, this method has sufficient sensitivity and resolution to detect LDL subclasses, which are seen as deviations from the normal distribution in the plot profile. […] Additionally, signal from the ApoB-luciferase fusion is responsive to known chemical and physiological modulators of ApoB (MTP inhibition and fasting).
The in-gel luciferase assay developed in our lab provides the opportunity to rapidly and sensitively detect changes in lipoprotein size distribution using individual larval zebrafish. Following a week of high-fat diet with or without treatment of test compound, larval zebrafish are homogenized and lipoproteins are separated on a 3% native PAGE gel and imaged using the in-gel luciferase reporter. This enables rapid assessment of lead compounds on effects of the potentially clinically important lipoprotein size distribution phenotype. […]
In addition to its utility as a high-throughput compatible readout for measuring levels of Apolipoprotein B, the described ApoB-NanoLuc® luciferase reporter can also be used to measure the size distribution and localization of ApoB-containing particles in zebrafish larvae. Lipoproteins separated using polyacrylamide gel electrophoresis can be sensitively detected in individual larval homogenates by immersing the gel in the NanoLuc® luciferase substrate. […]

**Q.** Which “ApoB levels in humans” value [1] does the source give for `O=C(NC1CCN(CCCCC2(C(=O)NCC(F)(F)F)c3ccccc3-c3ccccc32)CC1)c1ccccc1-c1ccc(C(F)(F)F)cc1` [lomitapide] here?
**A.** Its value is “significant reduction”.

**Q.** And the “reporter activity relative to vehicle-treated controls” value ([2]; larval zebrafish, serial dilutions, 36 hours from 2.5 to 4 dpf)?
**A.** The value was “dose-dependent reduction”.

**Q.** What about the “SSMD score (ApoB-NanoLuc)” value ([2]; positive control treatments, hit cutoff −2.7) of the same molecule?
**A.** The value was −4.5.

**Q.** What about the NanoLuc luciferase levels ([2]; preliminary screen, dose-response, hit selection cutoff −2.7) of the same molecule?
**A.** The NanoLuc luciferase levels was “dose-dependent decrease”.

**Q.** And the “change in ApoB (ApoB-NanoLuc)” value ([2]; preliminary validation screen of lipid/lipoprotein metabolism compounds)?
**A.** Its value is “significant change in ApoB”.

**Q.** What about the “ApoB-NanoLuc luciferase levels in transgenic larvae” value ([2]; transgenic larvae) of the same molecule?
**A.** Its value is “significantly lowered”.

**Q.** And the “effect on internal control reporter (firefly luciferase)” value [3]?
**A.** Its value is “without affecting the internal control reporter”.

**Q.** What about the ApoB levels ([4]; acute treatment, larval zebrafish, 3% native PAGE) of the same molecule?
**A.** The ApoB levels was “significant reduction”.

**Q.** What about the “lipoprotein particle size distribution” value [4] of the same molecule?
**A.** The value was “unable to create large lipoprotein particles; also recorded: particle size and number are greatly reduced; also recorded: did not have large lipoprotein particles”.

**Q.** What about the “lipoprotein particle size distribution” value ([4]; listed as Lomitapide) of the same molecule?
**A.** The value was “induced the formation of very small lipoprotein particles”.
